Laboratory results taken from ChEMBL document CHEMBL1201862, “PubChem BioAssay data set” (2004).
Calls of active or inactive are those of the source.

What was measured:
HeLa = assay: HeLa cell cytotoxicity, dose response, cytotoxicity control for MITF activator project, CellTiter-Glo luminescence, cherry-pick samples (AID 540259); type: functional, cell-based; details: Homo sapiens
[1] = Luminescence Cell-Based Dose Response HTS to Identify Activators of Luciferase Translation or Activity in H4 […] Cells. [Related pubchem assays: 1829 (Project Summary), 1814 (Primary HTS)]; type: functional
[2] = target: T1, Oxysterols receptor LXR-beta (Homo sapiens, UniProt P55055); type: functional, cell-based;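 note: agonist activity at LXR measured by a cell-based luminescence readout across a dose range, run as a counterscreen for daf-12 agonists; HEK293 cells with Gal4-LXR fusion and GAL4-driven luciferase reporter; potency for activation of Gal4-LXR reporter so compounds are agonists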
T1 sequence (P55055 whole entry): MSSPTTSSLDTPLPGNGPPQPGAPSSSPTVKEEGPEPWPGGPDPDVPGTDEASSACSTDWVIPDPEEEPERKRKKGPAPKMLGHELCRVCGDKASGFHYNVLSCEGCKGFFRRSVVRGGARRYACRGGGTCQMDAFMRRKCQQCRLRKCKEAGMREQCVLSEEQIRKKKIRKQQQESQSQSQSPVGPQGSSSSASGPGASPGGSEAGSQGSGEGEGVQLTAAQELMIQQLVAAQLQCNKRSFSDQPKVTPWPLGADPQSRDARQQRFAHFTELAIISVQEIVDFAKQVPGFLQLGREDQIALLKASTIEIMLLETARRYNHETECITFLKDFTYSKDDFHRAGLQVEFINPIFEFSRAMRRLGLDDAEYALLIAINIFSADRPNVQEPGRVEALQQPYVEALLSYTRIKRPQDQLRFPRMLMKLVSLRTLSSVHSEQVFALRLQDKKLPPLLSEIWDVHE

Escherichia coli [3] = assay: microbe, parasite or virus in culture
Escherichia coli [4] = assay: microbe, parasite or virus in culture; remark: listed apart in the source
[5] = target: Beta-2 adrenergic receptor (Homo sapiens, UniProt P07550); assay: beta2AR agonists driving receptor internalization, dose response, cell-based, FAP fluorogen, flow cytometry, cherry pick 1 (AID 588763); type: functional
Chain of Beta-2 adrenergic receptor (P07550 whole entry): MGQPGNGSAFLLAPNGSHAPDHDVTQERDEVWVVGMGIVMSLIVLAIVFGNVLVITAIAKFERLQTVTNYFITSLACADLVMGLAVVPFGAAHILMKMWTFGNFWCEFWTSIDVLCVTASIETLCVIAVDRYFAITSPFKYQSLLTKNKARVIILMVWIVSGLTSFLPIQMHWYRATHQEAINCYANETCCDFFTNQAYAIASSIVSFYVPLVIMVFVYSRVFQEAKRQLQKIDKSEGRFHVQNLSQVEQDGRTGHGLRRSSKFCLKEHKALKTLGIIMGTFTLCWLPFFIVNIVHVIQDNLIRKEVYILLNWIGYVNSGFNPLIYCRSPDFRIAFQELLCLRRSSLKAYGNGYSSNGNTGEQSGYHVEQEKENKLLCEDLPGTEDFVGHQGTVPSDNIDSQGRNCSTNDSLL

[6] = HEp-2 cell cytotoxicity, dose response, cytotoxicity control for RSV inhibitor project, HTS (AID 2410); type: functional; details: human respiratory syncytial virus
Caspase-3 = target: T2, Caspase-3 (Homo sapiens, UniProt P42574); type: functional;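 note: Dose-response selectivity test against caspase-3 for candidate inhibitors of sentrin-specific proteases (SENPs)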
T2 sequence (P42574 whole entry): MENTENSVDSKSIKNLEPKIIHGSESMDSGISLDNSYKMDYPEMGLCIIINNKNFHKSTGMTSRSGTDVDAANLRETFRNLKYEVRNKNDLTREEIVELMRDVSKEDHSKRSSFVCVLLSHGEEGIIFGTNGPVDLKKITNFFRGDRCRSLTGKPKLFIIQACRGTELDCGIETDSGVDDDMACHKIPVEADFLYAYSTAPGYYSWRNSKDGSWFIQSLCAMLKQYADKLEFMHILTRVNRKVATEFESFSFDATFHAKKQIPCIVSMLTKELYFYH

[7] = target: T3, Sentrin-specific protease 7 (Homo sapiens, UniProt Q9BQF6); type: functional;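 note: Luminescence-based dose-response confirmation of ultra-high-throughput screening hits, measuring inhibition of SENP7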
T3 sequence (Q9BQF6 whole entry): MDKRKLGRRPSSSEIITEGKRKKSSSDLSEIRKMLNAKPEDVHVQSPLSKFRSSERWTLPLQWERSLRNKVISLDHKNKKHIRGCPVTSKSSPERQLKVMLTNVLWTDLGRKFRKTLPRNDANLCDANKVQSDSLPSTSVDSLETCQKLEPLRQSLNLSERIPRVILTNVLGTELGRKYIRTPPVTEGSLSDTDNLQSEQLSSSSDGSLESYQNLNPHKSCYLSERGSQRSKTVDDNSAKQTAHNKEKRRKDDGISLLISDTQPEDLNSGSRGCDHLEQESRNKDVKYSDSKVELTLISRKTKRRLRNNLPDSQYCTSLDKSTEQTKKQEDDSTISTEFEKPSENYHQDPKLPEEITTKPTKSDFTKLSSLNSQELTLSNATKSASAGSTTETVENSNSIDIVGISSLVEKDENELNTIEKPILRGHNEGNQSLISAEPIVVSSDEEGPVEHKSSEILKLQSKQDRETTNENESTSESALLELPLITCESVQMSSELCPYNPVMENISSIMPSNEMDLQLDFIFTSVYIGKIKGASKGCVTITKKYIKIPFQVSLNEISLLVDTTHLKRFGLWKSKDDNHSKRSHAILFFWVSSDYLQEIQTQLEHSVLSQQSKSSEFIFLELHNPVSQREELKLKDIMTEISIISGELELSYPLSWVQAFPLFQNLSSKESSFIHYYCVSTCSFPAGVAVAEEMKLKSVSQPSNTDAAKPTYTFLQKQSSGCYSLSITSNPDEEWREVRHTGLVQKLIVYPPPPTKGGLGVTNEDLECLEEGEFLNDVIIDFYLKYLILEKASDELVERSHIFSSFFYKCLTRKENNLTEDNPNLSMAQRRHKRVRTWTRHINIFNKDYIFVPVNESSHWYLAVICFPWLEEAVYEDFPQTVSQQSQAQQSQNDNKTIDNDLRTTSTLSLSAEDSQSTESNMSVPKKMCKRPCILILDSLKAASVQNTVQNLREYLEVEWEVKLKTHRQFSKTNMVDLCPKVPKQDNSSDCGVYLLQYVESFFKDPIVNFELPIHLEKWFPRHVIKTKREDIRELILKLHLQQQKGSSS

[8] = target: T4, Sentrin-specific protease 6 (Homo sapiens, UniProt Q9GZR1); type: functional;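 note: Luminescence-based dose-response confirmatory assay of SENP6 inhibition, following up an ultra-high-throughput screen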
T4 sequence (Q9GZR1 whole entry): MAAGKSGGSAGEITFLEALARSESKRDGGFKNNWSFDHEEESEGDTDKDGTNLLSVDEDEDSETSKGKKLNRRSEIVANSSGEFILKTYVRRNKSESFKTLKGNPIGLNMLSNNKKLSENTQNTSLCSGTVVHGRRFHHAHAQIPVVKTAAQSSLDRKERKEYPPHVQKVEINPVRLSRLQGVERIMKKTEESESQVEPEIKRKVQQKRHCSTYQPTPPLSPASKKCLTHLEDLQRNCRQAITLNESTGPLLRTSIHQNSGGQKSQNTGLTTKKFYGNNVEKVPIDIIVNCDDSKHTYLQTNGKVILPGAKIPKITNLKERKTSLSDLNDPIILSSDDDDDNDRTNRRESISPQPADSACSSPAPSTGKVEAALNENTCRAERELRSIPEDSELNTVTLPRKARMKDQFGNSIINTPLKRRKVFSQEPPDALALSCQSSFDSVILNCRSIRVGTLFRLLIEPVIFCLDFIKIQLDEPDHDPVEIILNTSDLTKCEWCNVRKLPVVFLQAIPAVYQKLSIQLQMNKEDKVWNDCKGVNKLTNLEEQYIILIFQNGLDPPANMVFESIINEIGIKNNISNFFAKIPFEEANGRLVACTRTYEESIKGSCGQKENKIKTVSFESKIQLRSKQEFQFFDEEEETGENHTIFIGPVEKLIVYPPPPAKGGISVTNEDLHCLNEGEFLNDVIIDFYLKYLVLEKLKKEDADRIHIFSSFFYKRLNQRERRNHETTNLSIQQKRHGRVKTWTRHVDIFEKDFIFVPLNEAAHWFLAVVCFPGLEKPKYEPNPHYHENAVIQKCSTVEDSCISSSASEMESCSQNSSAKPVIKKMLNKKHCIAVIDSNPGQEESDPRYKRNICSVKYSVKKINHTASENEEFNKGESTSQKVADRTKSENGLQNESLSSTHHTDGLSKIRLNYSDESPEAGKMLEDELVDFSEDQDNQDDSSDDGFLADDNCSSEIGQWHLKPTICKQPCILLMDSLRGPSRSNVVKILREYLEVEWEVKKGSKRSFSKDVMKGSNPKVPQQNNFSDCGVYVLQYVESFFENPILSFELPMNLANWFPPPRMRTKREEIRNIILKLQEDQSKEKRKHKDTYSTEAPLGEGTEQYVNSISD

[9] = target: T5, Sentrin-specific protease 8 (Homo sapiens, UniProt Q96LD8); type: functional;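 note: luminescence read-out of SENP8 inhibition, dose-response confirmation following an ultra-high-throughput screen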
T5 sequence (Q96LD8 whole entry): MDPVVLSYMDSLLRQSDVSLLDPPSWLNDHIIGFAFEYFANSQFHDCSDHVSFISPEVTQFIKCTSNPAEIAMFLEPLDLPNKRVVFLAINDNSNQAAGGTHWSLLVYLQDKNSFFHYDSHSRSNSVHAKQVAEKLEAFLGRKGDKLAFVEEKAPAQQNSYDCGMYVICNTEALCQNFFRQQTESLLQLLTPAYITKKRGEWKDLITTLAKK

[10] = microbe, parasite or virus in culture; type: functional; details: Mycobacterium tuberculosis
Beta-galactosidase = Beta-galactosidase (Escherichia coli, UniProt Q8VNN2); assay: PubChem AID 485352; type: functional
Chain of Beta-galactosidase (Q8VNN2 whole entry): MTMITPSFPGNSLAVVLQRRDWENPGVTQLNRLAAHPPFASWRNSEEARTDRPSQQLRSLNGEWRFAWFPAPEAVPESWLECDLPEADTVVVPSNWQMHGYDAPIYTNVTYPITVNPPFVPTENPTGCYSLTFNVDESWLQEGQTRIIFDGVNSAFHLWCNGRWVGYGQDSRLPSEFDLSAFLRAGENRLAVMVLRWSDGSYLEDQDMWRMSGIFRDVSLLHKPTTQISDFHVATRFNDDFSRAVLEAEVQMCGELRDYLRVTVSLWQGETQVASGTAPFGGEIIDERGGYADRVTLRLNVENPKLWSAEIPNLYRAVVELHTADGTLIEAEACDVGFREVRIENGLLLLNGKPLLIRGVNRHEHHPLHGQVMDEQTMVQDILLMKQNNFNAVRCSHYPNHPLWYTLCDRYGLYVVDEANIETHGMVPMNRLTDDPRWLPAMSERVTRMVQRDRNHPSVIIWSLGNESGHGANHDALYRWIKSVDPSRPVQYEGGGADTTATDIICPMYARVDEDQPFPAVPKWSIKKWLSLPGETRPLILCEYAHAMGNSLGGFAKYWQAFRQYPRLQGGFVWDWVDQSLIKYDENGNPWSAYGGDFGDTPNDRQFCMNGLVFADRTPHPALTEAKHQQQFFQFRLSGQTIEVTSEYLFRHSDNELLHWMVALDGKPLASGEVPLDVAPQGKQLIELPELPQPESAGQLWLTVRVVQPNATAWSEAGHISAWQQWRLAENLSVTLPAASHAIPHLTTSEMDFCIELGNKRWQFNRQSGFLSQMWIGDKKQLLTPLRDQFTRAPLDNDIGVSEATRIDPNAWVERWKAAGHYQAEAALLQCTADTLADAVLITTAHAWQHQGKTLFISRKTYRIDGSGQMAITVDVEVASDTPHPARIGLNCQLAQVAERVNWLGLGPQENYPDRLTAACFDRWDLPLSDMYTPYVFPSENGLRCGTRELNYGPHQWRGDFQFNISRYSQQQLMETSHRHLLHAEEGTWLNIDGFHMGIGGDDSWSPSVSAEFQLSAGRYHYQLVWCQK

[11] = target: Type-1 angiotensin II receptor (Homo sapiens, UniProt P30556); assay: AT1 receptor antagonists, dose response, selectivity assay for APJ receptor antagonist project, cell-based, uHTS hits (AID 463214); type: functional;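 note: antagonist potency against angiotensin II stimulated AT1 response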
Chain of Type-1 angiotensin II receptor (P30556 whole entry): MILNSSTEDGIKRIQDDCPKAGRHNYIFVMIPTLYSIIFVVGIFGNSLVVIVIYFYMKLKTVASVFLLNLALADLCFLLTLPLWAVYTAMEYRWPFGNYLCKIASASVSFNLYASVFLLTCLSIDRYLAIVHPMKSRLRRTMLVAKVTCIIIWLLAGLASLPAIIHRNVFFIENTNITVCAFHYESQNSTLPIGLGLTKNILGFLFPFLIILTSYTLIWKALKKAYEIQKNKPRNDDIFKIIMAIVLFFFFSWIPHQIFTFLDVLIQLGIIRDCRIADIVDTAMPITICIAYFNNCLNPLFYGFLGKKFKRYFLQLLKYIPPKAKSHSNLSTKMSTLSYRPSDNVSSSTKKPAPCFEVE

Genome polyprotein = Genome polyprotein (dengue virus type 2, UniProt P29990); assay: Dengue-2 NS5 methyltransferase inhibitors, primary screen, biochemical, confirmation dose response (AID 588689); type: functional
Chain of Genome polyprotein (P29990 2492-3391 limits assumed): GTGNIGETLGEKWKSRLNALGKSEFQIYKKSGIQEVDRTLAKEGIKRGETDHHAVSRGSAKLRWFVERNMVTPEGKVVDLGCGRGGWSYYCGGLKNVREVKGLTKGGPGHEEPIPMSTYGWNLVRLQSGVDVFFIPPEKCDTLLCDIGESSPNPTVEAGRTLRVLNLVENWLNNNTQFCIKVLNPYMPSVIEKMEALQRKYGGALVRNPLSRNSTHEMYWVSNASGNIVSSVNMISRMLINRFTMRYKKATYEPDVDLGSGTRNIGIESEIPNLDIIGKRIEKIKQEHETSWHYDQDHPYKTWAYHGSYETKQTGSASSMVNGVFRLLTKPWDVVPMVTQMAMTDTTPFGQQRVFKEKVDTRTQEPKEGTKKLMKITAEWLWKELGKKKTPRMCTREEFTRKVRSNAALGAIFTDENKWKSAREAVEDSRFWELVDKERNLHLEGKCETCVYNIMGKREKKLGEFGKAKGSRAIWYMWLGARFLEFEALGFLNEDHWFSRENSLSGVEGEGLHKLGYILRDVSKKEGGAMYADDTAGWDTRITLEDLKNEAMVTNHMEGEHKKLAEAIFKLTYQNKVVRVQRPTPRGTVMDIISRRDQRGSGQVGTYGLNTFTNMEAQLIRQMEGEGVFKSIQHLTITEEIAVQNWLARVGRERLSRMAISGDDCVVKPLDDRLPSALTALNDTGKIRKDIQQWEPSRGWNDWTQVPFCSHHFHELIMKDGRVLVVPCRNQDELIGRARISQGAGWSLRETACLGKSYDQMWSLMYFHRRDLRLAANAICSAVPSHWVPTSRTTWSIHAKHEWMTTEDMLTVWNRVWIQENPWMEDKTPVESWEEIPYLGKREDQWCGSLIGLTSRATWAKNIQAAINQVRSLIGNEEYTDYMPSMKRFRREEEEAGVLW

[12] = target: T6, Heat shock factor protein 1 (Mus musculus, UniProt P38532); assay: inhibition of MG132-induced HSE-luciferase signal, confirmation, cell-based, NIH3T3, luminescence, dose retest (AID 2382); type: functional;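 note: NIH3T3 fibroblasts with HSF1-driven luciferase reporter stressed by proteasome inhibitor MG132; luminescence from HSF1-driven luciferase expression after 8 hours of MG132 stress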
T6 sequence (P38532 whole entry): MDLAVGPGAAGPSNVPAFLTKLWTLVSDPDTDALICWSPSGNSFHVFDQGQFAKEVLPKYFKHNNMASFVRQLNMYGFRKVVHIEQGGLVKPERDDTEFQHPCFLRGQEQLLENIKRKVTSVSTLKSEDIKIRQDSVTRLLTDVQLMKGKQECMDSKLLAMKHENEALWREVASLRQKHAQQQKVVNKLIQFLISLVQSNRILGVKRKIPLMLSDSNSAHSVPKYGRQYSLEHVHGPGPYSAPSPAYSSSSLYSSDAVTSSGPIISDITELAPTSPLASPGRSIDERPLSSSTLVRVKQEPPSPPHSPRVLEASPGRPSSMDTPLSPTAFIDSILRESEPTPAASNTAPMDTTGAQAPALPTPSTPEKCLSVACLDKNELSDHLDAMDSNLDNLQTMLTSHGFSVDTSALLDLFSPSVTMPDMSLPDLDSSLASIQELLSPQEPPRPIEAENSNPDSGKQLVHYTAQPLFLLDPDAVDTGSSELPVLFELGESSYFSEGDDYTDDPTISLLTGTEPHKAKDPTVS

[13] = Luminescence Cell-Based Dose Confirmation HTS to Identify Activators of 5'UTR Stem-Loop Driven Alpha-Synuclein mRNA Translation in H4 Neuroglioblastoma Cells. [Related pubchem assays: 1829 (Project Summary), 1814 (Primary HTS)]; type: functional
cells [14] = type: functional, cell-based
H4 = assay: Luminescence Cell-Based Dose Response HTS to Identify Activators of 5'UTR Stem-Loop Driven Prion Protein mRNA Translation in H4 Neuroglioblastoma Cells. [Related pubchem assays: 1829 (Project Summary), 1814 (Primary HTS)]; type: functional; details: Homo sapiens
cells [15] = type: functional, cell-based; remark: listed apart in the source
HEK293 = assay: cells; type: functional, cell-based; details: Homo sapiens
[16] = target: T7, Nuclear receptor subfamily 0 group B member 1 (Homo sapiens, UniProt P51843); assay: Luminescence-based cell-based high throughput dose response assay for inhibitors of the orphan nuclear receptor subfamily 0, group B, member 1 (DAX1; NR0B1). [Related pubchem assays (depositor defined):AID504766, AID504790]; type: functional
T7 sequence (P51843 whole entry): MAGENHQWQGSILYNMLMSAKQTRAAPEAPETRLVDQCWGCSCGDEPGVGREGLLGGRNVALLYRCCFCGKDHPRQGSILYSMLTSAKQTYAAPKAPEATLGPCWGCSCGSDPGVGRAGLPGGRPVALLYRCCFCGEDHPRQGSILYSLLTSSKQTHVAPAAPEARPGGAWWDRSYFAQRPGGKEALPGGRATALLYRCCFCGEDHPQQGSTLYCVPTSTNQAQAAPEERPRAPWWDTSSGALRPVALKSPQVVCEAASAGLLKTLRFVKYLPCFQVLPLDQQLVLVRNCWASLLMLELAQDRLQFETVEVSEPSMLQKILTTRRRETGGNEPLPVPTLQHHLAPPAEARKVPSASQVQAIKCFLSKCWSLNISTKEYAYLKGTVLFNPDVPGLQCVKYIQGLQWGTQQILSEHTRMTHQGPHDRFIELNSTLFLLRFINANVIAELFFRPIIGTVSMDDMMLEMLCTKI

c1ccc2nc(-c3nccs3)ccc2c1
AC50 (HeLa): 57.5 µM (active)

COc1ccc(/C=C2\SC(=O)N(CCNC(=O)C3CC4C=CC3C4)C2=O)cc1 (configuration not stated)
EC50 [1]: 0.164 µM (active)
EC50 [2]: > 67.5 µM (inactive)
AC50 (Escherichia coli [3]): 23.7 µM (active)
AC50 (Escherichia coli [4]): > 380 µM (inactive)

CN(CC(=O)N1CCN(c2ncccn2)CC1)S(=O)(=O)c1ccc(Cl)cc1
EC50 [5]: 0.117 µM (active)

COc1cccc(NC(=O)c2csc3c2CCCC3)c1
CC50 [6]: 32.5 µM (active)
IC50 (Caspase-3): 19.2 µM (active)
IC50 [7]: 5.17 µM (active)
IC50 [8]: 15.5 µM (active)
IC50 [9]: 18.9 µM (active)
AC50 (HeLa): 49.7 µM (active)

CCCc1ccc2oc(C(=O)N(C)Cc3nccs3)c(C)c2c1
CC50 [10]: 21.8 µM (active)
AC50 (Escherichia coli [3]): 31.7 µM (active)
AC50 (Escherichia coli [4]): > 380 µM (inactive)

Cc1cc(C(=O)OCC(=O)c2cccc([N+](=O)[O-])c2)c2ccccc2n1
EC50 (Beta-galactosidase): > 40 µM (inactive)
IC50 [11]: 17.4 µM (active)

O=C1Nc2ccc(F)cc2C12Nc1ccccc1-c1nnc(SCc3ccccc3Cl)nc1O2 (configuration not stated)
EC50 (Beta-galactosidase): > 40 µM (inactive)
IC50 [11]: 25.5 µM (not active)
IC50 (Genome polyprotein): > 100 µM (active)

CC(=O)Nc1ccc(-c2cn3c(n2)SCC3)cc1
EC50 [12]: > 195 µM (not active)
EC50 [5]: 10.9 µM (inactive)

O=C(Nc1ncccc1O)c1ccc(C(=O)c2ccccc2)cc1
EC50 [13]: 11.4 µM (active)
EC50 [1]: 16.4 µM (active)
EC50 (cells [14]): 72.7 µM (active)
EC50 (H4): 23 µM (active)
EC50 (cells [15]): 48.2 µM (active)
IC50 (HEK293): 1.04 µM (active)
IC50 [16]: > 67.6 µM (inactive)
EC50 [2]: > 67.5 µM (inactive)

Cc1ccc2[nH]c(/C(C#N)=C/c3ccccc3C(=O)O)nc2c1
IC50 (HEK293): > 67.5 µM (inactive)
IC50 [16]: > 67.5 µM (inactive)
